Values quoted from earlier work, collected in patent US20240398765A1, “TRANSDERMAL THERAPEUTIC SYSTEM FOR THE TRANSDERMAL ADMINISTRATION OF TIZANIDINE” (LTS LOHMANN THERAPIE-SYSTEME AG, priority 2021, published 2024).
Structures can show the parent of a compound that is named as a salt.

Settings: background statement, no test described

| Compound | permeation through the skin |
| --- | --- |
| Clc1ccc2nsnc2c1NC1=NCCN1 [tizanidine in the form of its free base, 5-chloro-4-(2-imidazolin-2-ylamino)-2,1,3-benzothiadiazole] | slightly permeates through the skin |
| Clc1ccc2nsnc2c1NC1=NCCN1 [tizanidine in the form of its hydrochloride] | does not permeate through the skin |
